13 molecules from patent EP2998294A1, “Naphthyl sulfonamide phenyl derivatives as KEAP-1 modulators for the treatment of diabetes, obesity, dyslipidemia and related disorders” (SANOFI, priority 2014, dated 2016) can be followed below.

Structures are written as SMILES.

The target of the experiment is T1, human Keap1 kelch domain (amino acids Ala321-Thr609) (Homo sapiens, UniProt Q14145).
T1 construct: human Keap1 kelch domain (amino acids Ala321-Thr609)
T1 sequence (Q14145 321-609): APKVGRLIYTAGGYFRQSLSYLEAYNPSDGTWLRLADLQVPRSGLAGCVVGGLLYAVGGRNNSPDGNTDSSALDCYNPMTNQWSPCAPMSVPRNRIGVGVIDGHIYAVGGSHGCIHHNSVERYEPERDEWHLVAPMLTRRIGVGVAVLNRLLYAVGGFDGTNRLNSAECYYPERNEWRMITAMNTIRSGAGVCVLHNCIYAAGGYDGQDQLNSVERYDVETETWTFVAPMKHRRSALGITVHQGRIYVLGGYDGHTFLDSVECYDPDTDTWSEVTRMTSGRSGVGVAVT
Nature of the experiment: Keap1-Nrf2 peptide binding assay (fluorescence polarisation). The following applies: binding of Keap1 kelch domain (20 nM) to fluorescently labeled Nrf2 peptide (50 nM); read-out: IC50.
In the case of `Cc1nc(C)c(S(=O)(=O)Nc2ccc(-c3cc(C(=O)O)ccc3F)c3ccccc23)s1` [Example 80, 3-[4-[(2,4-dimethylthiazol-5-yl)sulfonylamino]-1-naphthyl]-4-fluorobenzoic acid], the IC50 was found to be 1.9 µM. The figure for `Cc1nn(-c2ccccc2)c(C)c1S(=O)(=O)Nc1ccc(-c2cc(C(=O)O)ccc2F)c2ccccc12` [Example 86, 3-[4-[(3,5-dimethyl-1-phenyl-pyrazol-4-yl)sulfonylamino]-1-naphthyl]-4-fluorobenzoic acid] is 1.5 µM. The figure for `Cc1nc(C)c(S(=O)(=O)Nc2ccc(-c3cccc(C(=O)O)c3)c3ccccc23)s1` [Example 24, 3-[4-[(2,4-dimethylthiazol-5-yl)sulfonylamino]-1-naphthyl]benzoic acid] is 4.6 µM; for `Cc1ccc(S(=O)(=O)Nc2ccc(-c3cccc(C(=O)O)c3)c3ccccc23)c(Cl)n1` [Example 73, 3-[4-[(2-chloro-6-methyl-3-pyridyl)sulfonylamino]-1-naphthyl]benzoic acid] it is 7.7 µM; for `O=C(O)c1cccc(-c2ccc(NS(=O)(=O)c3ccc(N4CCOCC4)nc3)c3ccccc23)c1` [Example 36, 3-[4-[(6-morpholino-3-pyridyl)sulfonylamino]-1-naphthyl]benzoic acid] it is 4.2 µM.

Consider `Cn1ccc2c(S(=O)(=O)Nc3ccc(-c4cc(C(=O)O)ccc4F)c4ncccc34)cccc21` [Example 97, 4-fluoro-3-[5-[(1-methylindol-4-yl)sulfonylamino]-8-quinolyl]benzoic acid], for which the IC50 was 5.5 µM. The figure for `O=C(O)c1ccc(F)c(-c2ccc(NS(=O)(=O)c3ccc(Cl)c(C(F)(F)F)c3)c3ccccc23)c1` [Example 75, 3-[4-[[4-chloro-3-(trifluoromethyl)phenyl]sulfonylamino]-1-naphthyl]-4-fluoro-benzoic acid] is 4.4 µM; for `COc1cc(C)ccc1S(=O)(=O)Nc1ccc(-c2cccc(C(=O)O)c2)c2ccccc12` [Example 18, 3-[4-[(2-methoxy-4-methylphenyl)sulfonylamino]-1-naphthyl]benzoic acid] it is 5.8 µM.

With `Cc1ccc(S(=O)(=O)Nc2ccc(-c3cccc(C(=O)O)c3)c3ccccc23)cc1` [Example 3, 3-[4-(p-tolylsulfonylamino)-1-naphthyl]benzoic acid], the IC50 came out at 2.1 µM. The figure for `O=C(O)c1cccc(-c2ccc(NS(=O)(=O)c3ccc(-n4cccn4)cc3)c3ccccc23)c1` [Example 20, 3-[4-[(4-pyrazol-1-ylphenyl)sulfonylamino]-1-naphthyl]benzoic acid] is 4 µM; for `Cc1ccc2c(NS(=O)(=O)c3c(C)c(C)cc(C)c3C)ccc(-c3cc(C(=O)O)ccc3F)c2n1` [Example 61, 4-fluoro-3-[2-methyl-5-[(2,3,5,6-tetramethylphenyl)sulfonylamino]-8-quinolyl]benzoic acid; 2,2,2-trifluoroacetic acid] it is 0.5 µM. The figure for `Cc1ccc2sc(S(=O)(=O)Nc3ccc(-c4cccc(C(=O)O)c4)c4ccccc34)cc2c1` [Example 25, 3-[4-[(5-methylbenzothiophen-2-yl)sulfonylamino]-1-naphthyl]benzoic acid] is 3 µM. The figure for `Cc1cc(NC(=O)N2CCOCC2)ccc1S(=O)(=O)Nc1ccc(-c2cccc(C(=O)O)c2)c2ccccc12` [Example 45, 3-[4-[[2-methyl-4-(morpholine-4-carbonylamino)phenyl]sulfonylamino]-1-naphthyl]benzoic acid] is 2.5 µM.
